# From ChEMBL document CHEMBL1201862, “PubChem BioAssay data set” (2004)
#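 The compound was tested at five concentrations on cells cultured in 96-well plates, with a 48-hour exposure period. GI50: concentration for 50% inhibition of growth.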 The source made the active and inactive calls. Cut-off read from the data, not from the text of the source: active = GI50 up to about 1.1 µM and inactive = higher.
# Columns and labels:
# Assay in all cases: NCI-60 cell line screen, 48 h
# HOP-92 = tested on: HOP-92
# TK-10 = tested on: TK-10
# U-251 = tested on: U-251
# HCT-116 = tested on: HCT-116
# SF-295 = tested on: SF-295
# COLO 205 = tested on: COLO 205
# SK-OV-3 = tested on: SK-OV-3
# SN12C = tested on: SN12C
# CCRF-CEM = tested on: CCRF-CEM
# HCT-15 = tested on: HCT-15
# RPMI-8226 = tested on: RPMI-8226
# HOP-62 = tested on: HOP-62
# SF-268 = tested on: SF-268
# SK-MEL-28 = tested on: SK-MEL-28
# SNB-75 = tested on: SNB-75
# 786-0 = tested on: 786-0
# SNB-19 = tested on: SNB-19
# OVCAR-5 = tested on: OVCAR-5
SMILES,GI50 (HOP-92),GI50 (TK-10),GI50 (U-251),GI50 (HCT-116),GI50 (SF-295),GI50 (COLO 205),GI50 (SK-OV-3),GI50 (SN12C),GI50 (CCRF-CEM),GI50 (HCT-15),GI50 (RPMI-8226),GI50 (HOP-62),GI50 (SF-268),GI50 (SK-MEL-28),GI50 (SNB-75),GI50 (786-0),GI50 (SNB-19),GI50 (OVCAR-5)
Cn1ccnc1C(c1nccn1C)C(C)(C)[N+](=O)[O-],> 100 µM (inactive),> 100 µM (inactive),> 100 µM (inactive),> 100 µM (inactive),> 100 µM (inactive),> 100 µM (inactive),> 100 µM (inactive),> 100 µM (inactive),> 100 µM (inactive),> 100 µM,> 100 µM (inactive),> 100 µM (inactive),> 100 µM (inactive),> 100 µM (inactive),> 100 µM (inactive),> 100 µM (inactive),,
C[s+]1c2ccccc2c2ccccc21,,> 100 µM (inactive),> 100 µM (inactive),> 100 µM (inactive),> 100 µM (inactive),> 100 µM (inactive),,> 100 µM (inactive),> 100 µM (inactive),92 µM,> 100 µM (inactive),> 100 µM (inactive),> 100 µM (inactive),> 100 µM (inactive),,> 100 µM (inactive),74.1 µM (inactive),> 100 µM (inactive)
O=C1c2ccccc2C(=O)N1CC#CCO,,> 100 µM (inactive),> 100 µM (inactive),> 100 µM (inactive),> 100 µM (inactive),,95.5 µM (inactive),> 100 µM (inactive),> 100 µM (inactive),> 100 µM,,> 100 µM (inactive),> 100 µM (inactive),> 100 µM (inactive),,> 100 µM (inactive),> 100 µM (inactive),> 100 µM (inactive)
CCOC(=O)/C(=C\c1ccc(N(CCC#N)CCC#N)cc1C)NC(=O)/C=C/c1ccccc1,,> 100 µM (inactive),> 100 µM (inactive),> 100 µM (inactive),> 100 µM (inactive),> 100 µM (inactive),> 100 µM (inactive),> 100 µM (inactive),> 100 µM (inactive),> 100 µM,> 100 µM (inactive),> 100 µM (inactive),> 100 µM (inactive),> 100 µM (inactive),> 100 µM (inactive),> 100 µM (inactive),> 100 µM (inactive),> 100 µM (inactive)
CC(C)(C)/N=C\N(C=C(c1ccccc1)c1ccccc1)C1CCCCC1,17.9 µM (inactive),78.3 µM (inactive),32.1 µM (inactive),23.4 µM (inactive),32 µM (inactive),22.7 µM (inactive),,43.4 µM (inactive),34.8 µM (inactive),28.5 µM,,> 100 µM (inactive),41.1 µM (inactive),35 µM (inactive),33.7 µM (inactive),82.4 µM (inactive),> 100 µM (inactive),35.1 µM (inactive)
COc1ccc(Nc2nc3ccc(C(F)(F)F)cc3nc2-c2ccccc2)cc1OC,1.08 µM (active),> 10 µM (inactive),34.1 µM (inactive),27.4 µM (inactive),17.4 µM (inactive),27.9 µM (inactive),> 100 µM (inactive),38 µM (inactive),25.1 µM (inactive),15.9 µM,,> 100 µM (inactive),92.7 µM (inactive),> 100 µM (inactive),> 100 µM (inactive),23.3 µM (inactive),,52.7 µM (inactive)
CC(O)CNC(=O)C(C)Oc1ccc(OCC2CCCCC2)cc1 (configuration not stated),,> 100 µM (inactive),> 100 µM (inactive),> 100 µM (inactive),84.1 µM (inactive),,> 100 µM (inactive),> 100 µM (inactive),> 100 µM (inactive),> 100 µM,,,> 100 µM (inactive),> 100 µM (inactive),> 100 µM (inactive),> 100 µM (inactive),> 100 µM (inactive),
CCOC(=O)COc1ccc(OC)c2c1C(=O)CCC2,,> 100 µM (inactive),> 100 µM (inactive),> 100 µM (inactive),> 100 µM (inactive),> 100 µM (inactive),> 100 µM (inactive),> 100 µM (inactive),> 100 µM (inactive),> 100 µM,> 100 µM (inactive),,,> 100 µM (inactive),> 100 µM (inactive),,20 µM (inactive),
CCN(CC)CCC(=O)NC1c2ccccc2Oc2c(C)cccc21 (configuration not stated),,> 100 µM (inactive),> 100 µM (inactive),> 100 µM (inactive),,> 100 µM (inactive),> 100 µM (inactive),> 100 µM (inactive),> 100 µM (inactive),> 100 µM,> 100 µM (inactive),> 100 µM (inactive),> 100 µM (inactive),> 100 µM (inactive),> 100 µM (inactive),> 100 µM (inactive),> 100 µM (inactive),> 100 µM (inactive)
COc1ccc2c(c1)[n+]([O-])c(C(=O)C/C(=N/NC(=O)c1ccccc1O)C(=O)Nc1ccc(Cl)c(C(F)(F)F)c1)c(C)[n+]2[O-],> 100 µM (inactive),50.5 µM (inactive),> 100 µM (inactive),48.2 µM (inactive),72.3 µM (inactive),71 µM (inactive),> 100 µM (inactive),47.2 µM (inactive),36.4 µM (inactive),43.7 µM,,37.8 µM (inactive),54.8 µM (inactive),> 100 µM (inactive),66.5 µM (inactive),54.5 µM (inactive),> 100 µM (inactive),45.4 µM (inactive)
CCOC(=O)CC(NC(=O)c1nc[nH]c1/N=N/N(C)C)C(=O)OCC (configuration not stated),,> 100 µM (inactive),> 100 µM (inactive),> 100 µM (inactive),> 100 µM (inactive),> 100 µM (inactive),> 100 µM (inactive),> 100 µM (inactive),> 100 µM (inactive),> 100 µM,> 100 µM (inactive),> 100 µM (inactive),> 100 µM (inactive),> 100 µM (inactive),> 100 µM (inactive),> 100 µM (inactive),> 100 µM (inactive),> 100 µM (inactive)
CC(C)(C)[Si](Nc1ccccc1)(c1ccccc1)c1ccccc1,13.9 µM (inactive),14.5 µM (inactive),13.8 µM (inactive),7.91 µM (inactive),13.3 µM (inactive),15.3 µM (inactive),17.1 µM (inactive),15 µM (inactive),16 µM (inactive),15 µM,16.8 µM (inactive),16.8 µM (inactive),13.5 µM (inactive),16.6 µM (inactive),12.1 µM (inactive),15 µM (inactive),14.1 µM (inactive),
CC[C@H](C)N(CCN)C(=O)c1cc2ccccc2c(-c2ccccc2Cl)n1,,12.1 µM (inactive),11.6 µM (inactive),2.85 µM (inactive),15.1 µM (inactive),4.54 µM (inactive),,18.2 µM (inactive),3.3 µM (inactive),4.42 µM,13.2 µM (inactive),17.5 µM (inactive),1.55 µM (inactive),13.5 µM (inactive),,4.49 µM (inactive),16.1 µM (inactive),14.7 µM (inactive)
